According to US7244724B2, “Pyrrolobenzodiazepines” (United States of America, Represented by the Secretary, …, priority 2003, dated 2007):

Tests used:
[1] = test system: K562 human chronic myeloid leukaemia cells; assay: K562 assay (MTT cytotoxicity); format: cell-based; conditions: 96 h, 4 days incubation, n=2
Experimental: An initial stock of compound (in 0.006% DMSO) was used to generate a 1:3 dilution series ranging from 600 nM to 30 pM be the sequential addition of 40 μL compound to 80 μL of solvent (0.006% DMSO in sterile H2O). 10 μL of each point of the dilution range was transferred to a 96 well assay plate (Nunc, Cat. No. 163320) to generate four replica points per compound concentration. K562 human chronic myeloid leukaemia cells were maintained in RPM1 1640 medium supplemented with 10% foetal calf serum and 2 mM glutamine at 37° C. in a humidified atmosphere containing 5% CO2. 190 μL of a 5×10^4 cell solution was added to each well of the assay plate using a Matrix Wellmate (Apogent Discoveries), resulting in a total of 9.5×10^3 cells/well. Working compound concentrations therefore ranged from 30 nM to 1.5 pM. Plates were then kept in the dark at 37° C. in a humidified atmosphere containing 5% CO2. The assay is based on the ability of viable cells to reduce a yellow soluble tetrazolium salt, 3-(4,5-dimethylthiazol-2-yl)-2,5-diphenyl-2H-tetrazolium bromide (MTT, Aldrich-Sigma), to an insoluble purple formazan precipitate. […] The optical density was then read at a wavelength of 540 nm on a Fusion plate reader (Perkin Elmer). […]

[2] = Stability in d6-DMSO, d4-MeOH and D2O by 1H NMR (Study 4); format: physicochemical
Experimental: Samples of SJG-720 (˜3 mg) were dissolved in d6-DMSO, D2O and d4-MeOH (Cambridge Isotopes) and transferred to separate NMR tubes (Wilmad, 5 mm). ^1H NMR spectra were obtained on a Bruker Avance 400 MHz NMR spectrophotometer (typically 64 scans). ^13C and DEPT (Distortionless Enhancement through Polarized Transfer) experiments were performed on these samples using the same instrument at the appropriate field strength (100 MHz).
NMR spectra were recorded, as described above, after the following time intervals: • d6-DMSO, 1 hr, 8 days. • D2O, 3 hrs, 8 days. • d4-MeOH, 10 minutes, 3 days. Additional Studies
NMR experiments were carried out on SJG-136 in its carbinolamine forms. […] However, strong signals corresponding to the kinetic and thermodynamic carbinolamine forms can be observed when the sample is analysed in d6-DMSO. These gradually disappear from the spectra over a period of about 24 hours when the imine form becomes the predominant species.
Samples of the bisulphite adduct SJG-720 dissolved in d6-DMSO and D2O were stored at room temperature for over a period of 7 days and then analysed by ^1H NMR spectroscopy. […] In addition, a sample of SJG-720 stored at room temperature in d4-MeOH for over 3 days was also analysed by ^1H NMR.

For `C=C1C[C@H]2C=Nc3cc(OCCCOc4cc5c(cc4OC)C(=O)N4CC(=C)C[C@H]4C=N5)c(OC)cc3C(=O)N2C1` [SJG-136], the IC50 [1] was under 10 nM, the “Interconversion of carbinolamine forms to imine” value ([2]; CDCl3 or CD3CN) was “revert to the imine form immediately” and the “Period over which carbinolamine form signals disappear and the imine form becomes predominant” value ([2]; carbinolamine forms in d6-DMSO) was “about 24 hours”.

For `C=C1C[C@H]2C(S(=O)(=O)[O-])Nc3cc(OCCCOc4cc5c(cc4OC)C(=O)N4CC(=C)C[C@H]4C(S(=O)(=O)[O-])N5)c(OC)cc3C(=O)N2C1.[Na+].[Na+]` (stereo partly drawn) [SJG-720, 1,1′[[(Propane-1,3-diyl)dioxy]bis(11aS)-11-sulpho-7-methoxy-2-methylidene-1,2,3,10,11,11a-hexahydro-5H-pyrrolo[2,1-c][1,4-benzodiazepin-5-one]] sodium salt], the “Stability in D2O (1H NMR spectrum change)” value ([2]; D2O, room temperature, over 7 days) was “no appreciable hydrolysis had occurred”, the “Stability in d4-MeOH (interconversion to carbinolamine methyl ether)” value ([2]; d4-MeOH, room temperature, over 3 days) was “interconversion to the carbinolamine methyl ether from was not observed” and the “Stability in d6-DMSO (reversion to parent imine)” value ([2]; d6-DMSO, room temperature, over 7 days) was “complete absence of parent imine SJG-136 signals”.
